From patent US20250051300A1, “GRAM-NEGATIVE SPECIFIC ANTIBIOTICS SPARING EFFECT ON GUT MICROBIOME” (THE BOARD OF TRUSTEES OF THE UNIVERSITY OF ILLINOIS, priority 2021, published 2025)
Converted amounts (≈) assume the structure as drawn. Read-outs that look alike come from different tables or passages of the source.

Key:
[1] = test system: Escherichia coli; experiment: Resistance frequency, large inoculum method; type: cell-based; settings: E. coli ΔtolC JW5503, 32×MIC
Procedure: Selection of resistant mutants. Resistant mutants were selected using the large inoculum method. Briefly, E. coli BW25113, K. pneumoniae ATCC 27736, or E. cloacae ATCC 29893 (˜1.0×10^7 c.f.u.) was plated on 100-mm plates of Luria Bertani agar containing 8, 16, 32, or 64 μg/mL, lolamycin. For E. coli ΔtolC (JW5503), ˜1.0×10^7 c.f.u. was plated on 100-mm plates of Luria Bertani agar containing 0.063, 0.13, 0.25, 0.5 μg/mL lolamycin. Colonies were visible after incubating at 37° C. for 48 h. Resistant colonies were confirmed by growing colonies in selective media with the same concentration of lolamycin.

[2] = test system: clinical isolates of E. coli, K. pneumoniae, and E. cloacae; experiment: Susceptibility of panel of multidrug-resistant clinical isolates
[3] = test system: Escherichia coli; experiment: MIC, micro-dilution broth method (CLSI); type: cell-based
[4] = test system: Enterobacter cloacae; experiment: MIC, micro-dilution broth method (CLSI); type: cell-based
[5] = Aqueous solubility limit; type: physicochemical; settings: cation-adjusted Mueller Hinton broth (MIC assay medium); limit to which compounds were tested in MIC assays
[6] = test system: E. coli AR0349; experiment: Acute pneumonia bacterial burden model; type: in vivo, CD-1 mice; settings: 100 mg/kg IP twice a day for 3 days, lungs, 72 h post-infection
[7] = Mouse maximum tolerated dose / tolerability; type: in vivo; settings: IP
Procedure: Mouse maximum tolerated dose (MTD) of compound 2 and lolamycin. […] In these studies, 10- to 12-week-old female C57BL/6 mice purchased from Charles River Laboratories were used. The maximum tolerated dose (MTD) of a single compound via IP injection was determined first. Compound 2 and lolamycin were formulated in 50% DMSO, 50% PEG400. Compound 2 and lolamycin were given by intraperitoneal (IP) injection. All the mice were monitored for signs of toxicity for 2 weeks. For multiple doses, the compound was given by daily IP injection for 5 consecutive days and the mice were monitored for signs of toxicity for 1 month. The MTD was the highest dosage with acceptable toxicity (for example, <20% weight loss).
Next, the MTD of lolamycin via oral gavage was determined. Lolamycin was formulated in 20% DMSO, 30% Water, and 50% PEG400. Lolamycin was given via oral gavage. All the mice were monitored for signs of toxicity for 2 weeks. For multiple doses, compound was given twice daily orally for 3 consecutive days and the mice were monitored for signs of toxicity. The MTD was the highest dosage with acceptable toxicity (for example, <20% weight loss). […] The MTD of lolamycin was used to inform the dosing schedule used in subsequent efficacy studies.

[8] = test system: E. coli AR0349; experiment: Bacterial sepsis survival model; type: in vivo, CD-1 mice; settings: 100 mg/kg IP twice daily for 3 days

Fc1ccc(COc2cccc(-c3n[nH]cc3-c3ccncc3)c2)cc1 [Compound 2, 4-(3-(3-((4-fluorobenzyl)oxy)phenyl)-1H-pyrazol-4-yl)pyridine]
resistance frequency [1]: 9.2×10^−7 | activity against MDR clinical isolates [2]: only minimal activity | MIC ([3]; E. coli AR-0349 (colistin-resistant clinical isolate)): >32 µg/mL | MIC ([3]; E. coli AR-0549): >32 µg/mL | MIC ([3]; Escherichia coli, ATCC25922, E. coli ATCC 25922, read-out: MIC): 8 µg/mL (≈ 23.2 µM) | MIC ([3]; Escherichia coli, ATCCBAA2340, E. coli ATCC BAA-2340, read-out: MIC): > 32 µg/mL | MIC ([3]; Escherichia coli, ATCCBAA2469, E. coli ATCC BAA-2469, read-out: MIC): > 32 µg/mL | MIC ([3]; Escherichia coli, ATCCBAA2471, E. coli ATCC BAA-2471, read-out: MIC): > 32 µg/mL | MIC ([3]; Escherichia coli, E. coli AR0048, read-out: MIC): > 32 µg/mL | MIC ([3]; Escherichia coli, E. coli AR0055, read-out: MIC): > 32 µg/mL | MIC ([3]; Escherichia coli, E. coli AR0058, read-out: MIC): > 32 µg/mL | MIC ([3]; Escherichia coli, E. coli AR0061, read-out: MIC): > 32 µg/mL | MIC ([3]; Escherichia coli, E. coli AR0067, read-out: MIC): > 32 µg/mL | MIC ([3]; Escherichia coli, E. coli AR0069, read-out: MIC): > 32 µg/mL | MIC ([3]; Escherichia coli, E. coli AR0077, read-out: MIC): 8 µg/mL (≈ 23.2 µM) | MIC ([3]; Escherichia coli, E. coli AR0081, read-out: MIC): 16 µg/mL (≈ 46.3 µM) | MIC ([3]; Escherichia coli, E. coli AR0084, read-out: MIC): > 32 µg/mL | MIC ([3]; Escherichia coli, E. coli AR0085, read-out: MIC): > 32 µg/mL | MIC ([3]; Escherichia coli, E. coli AR0086, read-out: MIC): 8 µg/mL (≈ 23.2 µM) | MIC ([3]; Escherichia coli, E. coli AR0089, read-out: MIC): > 32 µg/mL | MIC ([3]; Escherichia coli, E. coli AR0104, read-out: MIC): 16 µg/mL (≈ 46.3 µM) | MIC ([3]; Escherichia coli, E. coli AR0114, read-out: MIC): > 32 µg/mL | MIC ([3]; Escherichia coli, E. coli AR0118, read-out: MIC): 16 µg/mL (≈ 46.3 µM) | MIC ([3]; Escherichia coli, E. coli AR0119, read-out: MIC): > 32 µg/mL | MIC ([3]; Escherichia coli, E. coli AR0128, read-out: MIC): 16 µg/mL (≈ 46.3 µM) | MIC ([3]; Escherichia coli, E. coli AR0137, read-out: MIC): 16 µg/mL (≈ 46.3 µM) | MIC ([3]; Escherichia coli, E. coli AR0149, read-out: MIC): > 32 µg/mL | MIC ([3]; Escherichia coli, E. coli AR0150, read-out: MIC): 16 µg/mL (≈ 46.3 µM) | MIC ([3]; Escherichia coli, E. coli AR0151, read-out: MIC): > 32 µg/mL | MIC ([3]; Escherichia coli, E. coli AR0162, read-out: MIC): > 32 µg/mL | MIC ([3]; Escherichia coli, E. coli AR0346, read-out: MIC): > 32 µg/mL | MIC ([3]; Escherichia coli, E. coli AR0348, read-out: MIC): > 32 µg/mL | MIC ([3]; Escherichia coli, E. coli AR0350, read-out: MIC): > 32 µg/mL | MIC ([3]; Escherichia coli, E. coli AR0493, read-out: MIC): > 32 µg/mL | MIC ([3]; Escherichia coli, E. coli AR0494, read-out: MIC): > 32 µg/mL | MIC ([3]; Escherichia coli, E. coli AR0495, read-out: MIC): > 32 µg/mL | MIC ([3]; Escherichia coli, E. coli AR0541, read-out: MIC): > 32 µg/mL | MIC ([3]; Escherichia coli, E. coli AR0543, read-out: MIC): > 32 µg/mL | MIC ([3]; Escherichia coli, E. coli AR0546, read-out: MIC): > 32 µg/mL | MIC ([3]; Escherichia coli, E. coli AR0551, read-out: MIC): > 32 µg/mL | MIC ([3]; Escherichia coli, E. coli AR0559, read-out: MIC): > 32 µg/mL | MIC ([3]; Escherichia coli, E. coli AR-0349 (colistin-resistant clinical isolate), read-out: MIC): > 32 µg/mL | MIC ([3]; Escherichia coli, E. coli AR-0549, read-out: MIC): > 32 µg/mL | MIC ([3]; Escherichia coli, E. coli ELZ 4004, read-out: MIC): > 32 µg/mL | MIC ([3]; Escherichia coli, E. coli ELZ 4017, read-out: MIC): 8 µg/mL (≈ 23.2 µM) | MIC ([3]; Escherichia coli, E. coli ELZ 4042, read-out: MIC): > 32 µg/mL | MIC ([3]; Escherichia coli, E. coli ELZ 4072, read-out: MIC): 8 µg/mL (≈ 23.2 µM) | MIC ([3]; Escherichia coli, E. coli ELZ 4081, read-out: MIC): 4 µg/mL (≈ 11.6 µM) | MIC ([3]; Escherichia coli, E. coli ELZ 4139, read-out: MIC): > 32 µg/mL | MIC ([3]; Escherichia coli, E. coli ELZ 4239, read-out: MIC): > 32 µg/mL | MIC ([3]; Escherichia coli, E. coli ELZ 4277, read-out: MIC): > 32 µg/mL | MIC ([3]; Escherichia coli, E. coli ELZ 4346, read-out: MIC): > 32 µg/mL | MIC ([3]; Escherichia coli, E. coli ΔrfaC JW3596 (permeability mutant)): 1 µg/mL (≈ 2.9 µM) | MIC ([3]; Escherichia coli, E. coli ΔtolC JW5503 (efflux-deficient)): 0.06 µg/mL (≈ 0.174 µM) | MIC ([4]; E. cloacae AR-0163): >32 µg/mL | MIC ([4]; E. cloacae ATCC BAA-2468): >32 µg/mL | MIC ([4]; Enterobacter cloacae, ATCC29893, E. cloacae ATCC 29893, read-out: MIC): > 32 µg/mL | MIC ([4]; Enterobacter cloacae, ATCCBAA2341, E. cloacae ATCC BAA-2341, read-out: MIC): > 32 µg/mL | MIC ([4]; Enterobacter cloacae, ATCCBAA2468, E. cloacae ATCC BAA-2468, read-out: MIC): > 32 µg/mL | MIC ([4]; Enterobacter cloacae, E. cloacae AR0032, read-out: MIC): > 32 µg/mL | MIC ([4]; Enterobacter cloacae, E. cloacae AR0038, read-out: MIC): > 32 µg/mL | MIC ([4]; Enterobacter cloacae, E. cloacae AR0050, read-out: MIC): 8 µg/mL (≈ 23.2 µM) | MIC ([4]; Enterobacter cloacae, E. cloacae AR0053, read-out: MIC): > 32 µg/mL | MIC ([4]; Enterobacter cloacae, E. cloacae AR0060, read-out: MIC): 16 µg/mL (≈ 46.3 µM) | MIC ([4]; Enterobacter cloacae, E. cloacae AR0065, read-out: MIC): 16 µg/mL (≈ 46.3 µM) | MIC ([4]; Enterobacter cloacae, E. cloacae AR0072, read-out: MIC): > 32 µg/mL | MIC ([4]; Enterobacter cloacae, E. cloacae AR0073, read-out: MIC): > 32 µg/mL | MIC ([4]; Enterobacter cloacae, E. cloacae AR0093, read-out: MIC): > 32 µg/mL | MIC ([4]; Enterobacter cloacae, E. cloacae AR0132, read-out: MIC): > 32 µg/mL | MIC ([4]; Enterobacter cloacae, E. cloacae AR0136, read-out: MIC): > 32 µg/mL | MIC ([4]; Enterobacter cloacae, E. cloacae AR0154, read-out: MIC): 8 µg/mL (≈ 23.2 µM) | MIC ([4]; Enterobacter cloacae, E. cloacae AR0164, read-out: MIC): > 32 µg/mL | MIC ([4]; Enterobacter cloacae, E. cloacae AR0544, read-out: MIC): > 32 µg/mL | MIC ([4]; Enterobacter cloacae, E. cloacae AR0545, read-out: MIC): > 32 µg/mL | MIC ([4]; Enterobacter cloacae, E. cloacae AR-0163, read-out: MIC): > 32 µg/mL | solubility [5]: 32 µg/mL (≈ 92.7 µM) | reduction in bacterial burden [6]: fared poorly | tolerability ([7]; C57BL/6 mice, daily dosing of 200 mg/kg for 5 consecutive days): well tolerated | tolerability ([7]; C57BL/6 mice, single dose of 200 mg/kg): well tolerated | tolerability ([7]; mice, 100 mg/kg twice a day for three days): well-tolerated | mice with septic infection rescued (survival) [8]: fared poorly
